These results are taken from patent US10273461B2, “Employing human adipose-derived stem cells to propagate serum-derived hepatitis C virus and use thereof” (FRONTIER BIO-DRUG DEVELOPMENT LIMITED, priority 2015, dated 2019).

For the assay, the system named is HCVser-1b. In words: Drug inhibition assay in HCVser-infected hADSC. The assay is classed as cell-based, hepatitis C virus. The following applies: p4-5 hADSC, graded concentrations, 21 days' cell lysates, qRT-PCR, IFNα as 16 h pretreatment.
With IFNα, the “HCV replication (viral 5'-UTR transcripts, fraction inhibition vs vehicle control)” value is listed as “inhibited in a dose-responsive manner”.

As for `NC(=O)c1ncn([C@@H]2O[C@H](CO)[C@@H](O)[C@H]2O)n1` [ribavirin], the “HCV replication (viral 5'-UTR transcripts, fraction inhibition vs vehicle control)” value is given as “inhibited in a dose-responsive manner”.

As to cyclosporine A, the “HCV replication (viral 5'-UTR transcripts, fraction inhibition vs vehicle control)” value is “inhibited in a dose-responsive manner”.
